According to the supplement of paper PMC10307832:

Experiments:
Experiment in all cases: relative viability (nuclei count vs DMSO), 5 days (fraction); higher = more cells survive
HCC-15 = tested on: HCC-15
In short: (§1)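 Each reported value is a median over duplicate plates. It expresses relative viability: treated-well nuclei count divided by vehicle-well nuclei count. Lung cancer cell lines in 1536-well plates were dosed by pin tool a day after seeding, alone with one drug or with a fixed anchor-drug dose plus five library-drug doses (not always all listed) in √10 steps, and nuclei were counted after 5 days.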

NCI-H358 = tested on: NCI-H358
In short: as §1

NCI-H23 = tested on: NCI-H23
In short: as §1

NCI-H1975 = tested on: NCI-H1975
In short: as §1

NCI-H838 = tested on: NCI-H838
In short: as §1

BEN = tested on: BEN
In short: as §1

NCI-H1437 = tested on: NCI-H1437
In short: as §1

201T = tested on: 201T
In short: as §1

NCI-H2342 = tested on: NCI-H2342
In short: as §1

NCI-H596 = tested on: NCI-H596
In short: as §1

SK-MES-1 = tested on: SK-MES-1
In short: as §1

HARA = tested on: HARA
In short: as §1

HCC-44 = tested on: HCC-44
In short: as §1

NCI-H1650 = tested on: NCI-H1650
In short: as §1

EKVX = tested on: EKVX
In short: as §1

COR-L23 = tested on: COR-L23
In short: as §1

NCI-H1792 = tested on: NCI-H1792
In short: as §1

NCI-H650 = tested on: NCI-H650
In short: as §1

NCI-H441 = tested on: NCI-H441
In short: as §1

HCC-827 = tested on: HCC-827
In short: as §1

A-427 = tested on: A-427
In short: as §1

SW 900 = tested on: SW 900
In short: as §1

## COc1cc2nccc(Oc3ccc(NC(=O)Nc4cc(C)on4)c(Cl)c3)c2cc1OC [Tivozanib] + O=C(c1cc(Cc2n[nH]c(=O)c3ccccc23)ccc1F)N1CCN(C(=O)C2CC2)CC1 [Olaparib] (partner 8 µM)
HCC-15; first compound 0.005 µM
  relative viability: 0.661
HCC-15; first compound 0.01581 µM
  relative viability: 0.709
HCC-15; first compound 0.05 µM
  relative viability: 0.755
HCC-15; first compound 0.1581 µM
  relative viability: 0.696
HCC-15; first compound 0.5 µM
  relative viability: 0.553
NCI-H358; first compound 0.005 µM
  relative viability: 0.522
NCI-H358; first compound 0.01581 µM
  relative viability: 0.612
NCI-H358; first compound 0.05 µM
  relative viability: 0.583
NCI-H358; first compound 0.1581 µM
  relative viability: 0.61
NCI-H358; first compound 0.5 µM
  relative viability: 0.542
NCI-H23; first compound 0.005 µM
  relative viability: 0.363
NCI-H23; first compound 0.01581 µM
  relative viability: 0.288
NCI-H23; first compound 0.05 µM
  relative viability: 0.347
NCI-H23; first compound 0.5 µM
  relative viability: 0.253
NCI-H1975; first compound 0.005 µM
  relative viability: 0.753
NCI-H1975; first compound 0.01581 µM
  relative viability: 0.815
NCI-H1975; first compound 0.05 µM
  relative viability: 0.756
NCI-H1975; first compound 0.1581 µM
  relative viability: 0.76
NCI-H1975; first compound 0.5 µM
  relative viability: 0.662
NCI-H838; first compound 0.005 µM
  relative viability: 0.785
NCI-H838; first compound 0.01581 µM
  relative viability: 0.785
NCI-H838; first compound 0.05 µM
  relative viability: 0.825
NCI-H838; first compound 0.1581 µM
  relative viability: 0.828
NCI-H838; first compound 0.5 µM
  relative viability: 0.773
BEN; first compound 0.005 µM
  relative viability: 0.979
BEN; first compound 0.01581 µM
  relative viability: 1.09
BEN; first compound 0.05 µM
  relative viability: 1.07
BEN; first compound 0.1581 µM
  relative viability: 1.03
BEN; first compound 0.5 µM
  relative viability: 0.888
NCI-H1437; first compound 0.005 µM
  relative viability: 0.613
NCI-H1437; first compound 0.01581 µM
  relative viability: 0.628
NCI-H1437; first compound 0.05 µM
  relative viability: 0.658
NCI-H1437; first compound 0.1581 µM
  relative viability: 0.613
NCI-H1437; first compound 0.5 µM
  relative viability: 0.584
201T; first compound 0.005 µM
  relative viability: 0.826
201T; first compound 0.01581 µM
  relative viability: 0.853
201T; first compound 0.05 µM
  relative viability: 0.821
201T; first compound 0.1581 µM
  relative viability: 0.875
201T; first compound 0.5 µM
  relative viability: 0.868
NCI-H2342; first compound 0.005 µM
  relative viability: 0.433
NCI-H2342; first compound 0.01581 µM
  relative viability: 0.404
NCI-H2342; first compound 0.05 µM
  relative viability: 0.465
NCI-H2342; first compound 0.5 µM
  relative viability: 0.42
NCI-H596; first compound 0.005 µM
  relative viability: 0.621
NCI-H596; first compound 0.01581 µM
  relative viability: 0.696
NCI-H596; first compound 0.05 µM
  relative viability: 0.773
NCI-H596; first compound 0.5 µM
  relative viability: 0.706
SK-MES-1; first compound 0.005 µM
  relative viability: 0.661
SK-MES-1; first compound 0.01581 µM
  relative viability: 0.623
SK-MES-1; first compound 0.05 µM
  relative viability: 0.772
SK-MES-1; first compound 0.1581 µM
  relative viability: 0.62
SK-MES-1; first compound 0.5 µM
  relative viability: 0.583
HARA; first compound 0.005 µM
  relative viability: 0.606
HARA; first compound 0.01581 µM
  relative viability: 1.07
HARA; first compound 0.05 µM
  relative viability: 0.763
HARA; first compound 0.1581 µM
  relative viability: 1.15
HARA; first compound 0.5 µM
  relative viability: 0.893
HCC-44; first compound 0.005 µM
  relative viability: 0.967
HCC-44; first compound 0.01581 µM
  relative viability: 0.911
HCC-44; first compound 0.05 µM
  relative viability: 0.998
HCC-44; first compound 0.1581 µM
  relative viability: 0.949
HCC-44; first compound 0.5 µM
  relative viability: 0.999
NCI-H1650; first compound 0.005 µM
  relative viability: 0.714
NCI-H1650; first compound 0.01581 µM
  relative viability: 0.94
NCI-H1650; first compound 0.05 µM
  relative viability: 0.855
NCI-H1650; first compound 0.1581 µM
  relative viability: 0.837
NCI-H1650; first compound 0.5 µM
  relative viability: 0.863
EKVX; first compound 0.005 µM
  relative viability: 0.801
EKVX; first compound 0.01581 µM
  relative viability: 0.881
EKVX; first compound 0.05 µM
  relative viability: 0.908
EKVX; first compound 0.1581 µM
  relative viability: 0.922
EKVX; first compound 0.5 µM
  relative viability: 0.725
COR-L23; first compound 0.005 µM
  relative viability: 0.324
COR-L23; first compound 0.01581 µM
  relative viability: 0.326
COR-L23; first compound 0.05 µM
  relative viability: 0.376
COR-L23; first compound 0.1581 µM
  relative viability: 0.363
COR-L23; first compound 0.5 µM
  relative viability: 0.298
NCI-H1792; first compound 0.005 µM
  relative viability: 0.313
NCI-H1792; first compound 0.01581 µM
  relative viability: 0.46
NCI-H1792; first compound 0.05 µM
  relative viability: 0.516
NCI-H1792; first compound 0.5 µM
  relative viability: 0.294
NCI-H650; first compound 0.005 µM
  relative viability: 0.321
NCI-H650; first compound 0.01581 µM
  relative viability: 0.359
NCI-H650; first compound 0.05 µM
  relative viability: 0.42
NCI-H650; first compound 0.1581 µM
  relative viability: 0.401
NCI-H650; first compound 0.5 µM
  relative viability: 0.323
NCI-H441; first compound 0.005 µM
  relative viability: 0.538
NCI-H441; first compound 0.01581 µM
  relative viability: 0.531
NCI-H441; first compound 0.05 µM
  relative viability: 0.525
NCI-H441; first compound 0.1581 µM
  relative viability: 0.432
NCI-H441; first compound 0.5 µM
  relative viability: 0.396
HCC-827; first compound 0.005 µM
  relative viability: 0.572
HCC-827; first compound 0.01581 µM
  relative viability: 0.719
HCC-827; first compound 0.05 µM
  relative viability: 0.623
HCC-827; first compound 0.1581 µM
  relative viability: 0.612
HCC-827; first compound 0.5 µM
  relative viability: 0.623
A-427; first compound 0.005 µM
  relative viability: 0.667
A-427; first compound 0.01581 µM
  relative viability: 0.747
A-427; first compound 0.05 µM
  relative viability: 0.774
A-427; first compound 0.1581 µM
  relative viability: 0.709
A-427; first compound 0.5 µM
  relative viability: 0.737
SW 900; first compound 0.005 µM
  relative viability: 0.779
SW 900; first compound 0.01581 µM
  relative viability: 0.817
SW 900; first compound 0.05 µM
  relative viability: 0.776
SW 900; first compound 0.5 µM
  relative viability: 0.855
